Data taken from the NIST ThermoML archive (doi:10.1016/j.jct.2013.01.009).
“And” between values parts separate entries of the source, which are not always exact repeats. Equal values may be shown once. Numbers after ± are expanded uncertainties.

Key:
[1] = Liquid, Closed cell (Static) method
[2] = molar heat capacity at constant pressure; conditions: 101.33 kPa, Liquid
[3] = molar enthalpy of vaporization or sublimation; conditions: 298.15 K; Liquid; Static calorimetry

CC1=CC[C@H]2C[C@@H]1C2(C)C [(S)-2-pinene]
[1]
Conditions | vapor or sublimation pressure
238.19 K | 0.0053 ± 0.00023 kPa
243.2 K | 0.00874 ± 0.00035 kPa and 0.00875 ± 0.00036 kPa
253.19 K | 0.02209 ± 0.00069 kPa and 0.0221 ± 0.00069 kPa
258.2 K | 0.03413 ± 0.00094 kPa and 0.03415 ± 0.00094 kPa and 0.03412 ± 0.00094 kPa
263.19 K | 0.05172 ± 0.0013 kPa
268.19 K | 0.07688 ± 0.0019 kPa and 0.07689 ± 0.0019 kPa and 0.07691 ± 0.0019 kPa
273.65 K | 0.1164 ± 0.0027 kPa
273.66 K | 0.1164 ± 0.0027 kPa
278.16 K | 0.1615 ± 0.0033 kPa and 0.1614 ± 0.0033 kPa
283.15 K | 0.2288 ± 0.0045 kPa
288.15 K | 0.3195 ± 0.0061 kPa and 0.3196 ± 0.0061 kPa
293.15 K | 0.4403 ± 0.0082 kPa and 0.4404 ± 0.0082 kPa
298.15 K | 0.599 ± 0.011 kPa and 0.5991 ± 0.011 kPa
303.15 K | 0.8053 ± 0.015 kPa
303.16 K | 0.8056 ± 0.015 kPa and 0.8057 ± 0.015 kPa
308.17 K | 1.071 ± 0.019 kPa
308.18 K | 1.071 ± 0.019 kPa

[2], Large sample (1 g) DSC
Conditions | molar heat capacity at constant pressure [J/K/mol]
273.4 K | 239.62 ± 4.2
278.5 K | 242.37 ± 4.2
283.6 K | 244.61 ± 4.2
288.7 K | 247.11 ± 4.2
293.8 K | 249.27 ± 4.3
298.9 K | 253.09 ± 4.4
304 K | 255.34 ± 4.4
309.1 K | 257.83 ± 4.5
314.2 K | 260.41 ± 4.5
319.4 K | 262.57 ± 4.6
324.5 K | 266.15 ± 4.6
329.6 K | 268.97 ± 4.7
334.7 K | 272.3 ± 4.7
339.8 K | 274.88 ± 4.7
344.9 K | 278.7 ± 4.8
350 K | 282.11 ± 4.9
355.1 K | 284.44 ± 4.9

CC1=CC(=O)[C@H]2C[C@@H]1C2(C)C [(-)-verbenone]
[1]
Conditions | vapor or sublimation pressure
273.65 K | 0.00181 ± 0.00015 kPa and 0.00183 ± 0.00015 kPa
273.66 K | 0.00181 ± 0.00015 kPa
278.15 K | 0.00278 ± 0.00017 kPa
278.16 K | 0.00276 ± 0.00017 kPa and 0.00277 ± 0.00017 kPa
283.15 K | 0.00436 ± 0.00021 kPa and 0.00437 ± 0.00021 kPa
288.15 K | 0.00676 ± 0.00028 kPa and 0.00678 ± 0.00028 kPa and 0.00675 ± 0.00028 kPa
293.15 K | 0.01031 ± 0.00042 kPa
293.16 K | 0.01032 ± 0.00042 kPa and 0.01035 ± 0.00042 kPa
298.15 K | 0.01545 ± 0.00056 kPa and 0.01546 ± 0.00056 kPa and 0.01547 ± 0.00056 kPa
303.15 K | 0.02273 ± 0.00071 kPa and 0.02278 ± 0.00071 kPa and 0.02281 ± 0.00071 kPa
308.16 K | 0.03304 ± 0.00092 kPa and 0.03307 ± 0.00092 kPa and 0.03309 ± 0.00092 kPa

[2]
Conditions | molar heat capacity at constant pressure [J/K/mol]
273.4 K, Large sample (1 g) DSC | 258.83 ± 4.5
278.5 K, Large sample (1 g) DSC | 260.99 ± 4.5
283.6 K, Large sample (1 g) DSC | 262.32 ± 4.6
288.7 K, Large sample (1 g) DSC | 264.07 ± 4.6
293.8 K, Large sample (1 g) DSC | 266.73 ± 4.7
298.15 K, Drop calorimetry | 270.55 ± 6.3
298.9 K, Large sample (1 g) DSC | 269.39 ± 4.7
304 K, Large sample (1 g) DSC | 270.47 ± 4.7
309.1 K, Large sample (1 g) DSC | 273.05 ± 4.7
314.2 K, Large sample (1 g) DSC | 275.62 ± 4.7
319.4 K, Large sample (1 g) DSC | 276.87 ± 4.8
324.5 K, Large sample (1 g) DSC | 279.45 ± 4.8
329.6 K, Large sample (1 g) DSC | 281.69 ± 4.9
334.7 K, Large sample (1 g) DSC | 284.69 ± 4.9
339.8 K, Large sample (1 g) DSC | 286.93 ± 5
344.9 K, Large sample (1 g) DSC | 289.68 ± 5
350 K, Large sample (1 g) DSC | 292 ± 5.1
355.1 K, Large sample (1 g) DSC | 294.42 ± 5.1

Conditions | molar enthalpy [kcal/mol]
[3] | 14.1 ± 0.359
